Data published in ChEMBL document CHEMBL1201862, “PubChem BioAssay data set” (2004).
Calls of active or inactive are those of the source.

Assays:
[1] = target: T1, Small ubiquitin-related modifier 1 (Homo sapiens, UniProt P63165); test: inhibitors of SUMO1 peptide binding, dose response, biochemical, fluorescence polarization, uHTS hits (AID 624382); format: functional; conditions: read-out: IC50_Mean
[2] = target: T1, Small ubiquitin-related modifier 1; test: inhibitors of SUMO1 partner interactions, dose response, biochemical, FRET (AID 624383); format: functional; conditions: read-out: IC50_Mean
[3] = inhibitors of HIV Env-driven cell fusion, dose response, cherry-pick (AID 652057); format: functional, cell-based
[4] = ZM109 Env clade C HIV-1 fusion inhibitors, dose response, HeLa effector, CEM target cells, luciferase, cherry-pick (AID 652058); format: functional, cell-based
[5] = off-target signal loss in HeLa-CEM21 co-culture – HeLa F-luc CTL cells, cherry-picked, counter-screen for HIV-1 Env fusion inhibitor project, dose response (AID 652040); format: functional, cell-based;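 further: potency for signal decrease marking cytotoxic or nonspecific inhibition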
[6] = inhibitors of clade B AD8 Env fusion, dose response, cell-based, cherry-pick (AID 652062); format: functional;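 further: luciferase signal from cell-cell fusion driven by HIV-1 clade B AD8 Env; potency is for inhibitors of fusion seen as a drop in luminescence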
[7] = target: Protein Wnt-3a (Mus musculus, UniProt P27467); test: Wnt3a-driven reporter signaling inhibition, dose response, selectivity assay for Gli-SUFU antagonist project, Wnt-LIGHT cells, luminescence (AID 651570); format: functional; conditions: read-out: IC50_Mean;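 further: Wnt-LIGHT reporter cells stimulated with conditioned medium from Wnt3a-producing cells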
[8] = target: SWI/SNF-related matrix-associated actin-dependent regulator of chromatin subfamily A member 2 (Homo sapiens, UniProt P51531); test: Luminescence-based cell-based high throughput dose response assay to identify activators of the function of SWI/SNF related, matrix associated, actin dependent regulator of chromatin, subfamily a, member 2 (SMARCA2, BRM).; format: functional
[9] = Counterscreen for activators of the function of SWI/SNF related, matrix associated, actin dependent regulator of chromatin, subfamily a, member 2 (SMARCA2, BRM): Luminescence-based cell-based high throughput dose response assay to identify non-selective compounds using the VP16 reporter assay.; format: functional
[10] = target: T2, Long-chain-fatty-acid--AMP ligase FadD28 (Mycobacterium tuberculosis, UniProt P9WQ59); test: Fluorescence polarization aasay to screen for inhibitors that compete for the binding of FadD28 to a bisubstrate Measured in Biochemical System Using Plate Reader - 2147-01_Inhibitor_Dose_CherryPick_Activity.; format: functional, Mycobacterium tuberculosis H37Rv
T2 sequence (P9WQ59 whole entry): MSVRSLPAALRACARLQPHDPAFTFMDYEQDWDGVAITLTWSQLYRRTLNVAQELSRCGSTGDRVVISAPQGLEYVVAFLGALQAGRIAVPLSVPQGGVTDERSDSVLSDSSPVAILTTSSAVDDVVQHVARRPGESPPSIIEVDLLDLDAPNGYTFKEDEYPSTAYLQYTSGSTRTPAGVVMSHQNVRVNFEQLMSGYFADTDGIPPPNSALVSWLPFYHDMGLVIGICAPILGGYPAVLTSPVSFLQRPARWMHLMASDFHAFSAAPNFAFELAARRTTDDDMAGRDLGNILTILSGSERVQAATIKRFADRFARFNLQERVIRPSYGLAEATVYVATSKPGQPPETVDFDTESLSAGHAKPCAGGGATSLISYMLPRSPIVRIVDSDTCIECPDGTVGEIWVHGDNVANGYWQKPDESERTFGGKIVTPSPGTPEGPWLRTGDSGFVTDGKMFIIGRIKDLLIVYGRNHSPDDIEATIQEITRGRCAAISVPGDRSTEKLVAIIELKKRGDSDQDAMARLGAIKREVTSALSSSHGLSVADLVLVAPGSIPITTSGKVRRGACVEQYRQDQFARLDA

[11] = target: T3, COUP transcription factor 2 (Homo sapiens, UniProt P24468); test: Luminescence-based cell-based high throughput dose response assay to identify inhibitors of COUP-TFII (NR2F2).; format: functional;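 further: HEK293 cells transiently cotransfected with COUP-TFII expression vector and reporter; luciferase reporter luminescence driven by COUP-TFII from the pX2-168 reporter plasmid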
T3 sequence (P24468 whole entry): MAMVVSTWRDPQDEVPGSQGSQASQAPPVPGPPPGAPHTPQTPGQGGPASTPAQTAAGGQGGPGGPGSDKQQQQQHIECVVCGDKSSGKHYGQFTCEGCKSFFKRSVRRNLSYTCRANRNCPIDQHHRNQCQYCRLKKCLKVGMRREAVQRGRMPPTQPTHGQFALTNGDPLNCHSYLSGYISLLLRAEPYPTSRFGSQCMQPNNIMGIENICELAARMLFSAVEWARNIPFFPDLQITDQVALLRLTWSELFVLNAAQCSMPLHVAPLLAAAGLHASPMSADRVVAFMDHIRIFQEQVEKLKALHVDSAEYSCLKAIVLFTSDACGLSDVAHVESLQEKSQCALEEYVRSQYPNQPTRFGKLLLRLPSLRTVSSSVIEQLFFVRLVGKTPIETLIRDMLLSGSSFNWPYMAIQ

[12] = miR-122 activators in hepatoma reporter cells, dose response, cell-based, Huh7 psiCHECK-miR122, Renilla luciferase, cherry-picked (AID 651956); format: functional;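 further: huh7 hepatoma cells stably carrying a psiCHECK-2 miR-122 sensor plasmid; renilla luciferase signal reporting endogenous miR-122 activity after 48 h compound exposure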

Protein Wnt-3a, sequence (P27467 whole entry): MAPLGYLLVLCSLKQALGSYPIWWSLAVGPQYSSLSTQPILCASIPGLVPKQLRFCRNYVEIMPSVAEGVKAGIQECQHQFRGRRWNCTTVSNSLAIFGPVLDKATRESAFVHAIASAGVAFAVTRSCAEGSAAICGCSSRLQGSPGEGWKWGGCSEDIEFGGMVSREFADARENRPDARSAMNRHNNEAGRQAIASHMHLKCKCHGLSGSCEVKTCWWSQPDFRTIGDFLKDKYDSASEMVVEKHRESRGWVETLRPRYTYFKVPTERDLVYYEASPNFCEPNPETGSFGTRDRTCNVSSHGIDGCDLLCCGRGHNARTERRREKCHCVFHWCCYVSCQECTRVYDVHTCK
T1 sequence (P63165 whole entry): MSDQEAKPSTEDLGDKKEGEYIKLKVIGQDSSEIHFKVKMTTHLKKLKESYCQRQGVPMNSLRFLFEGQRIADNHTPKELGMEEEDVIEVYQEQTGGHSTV
SWI/SNF-related matrix-associated actin-dependent regulator of chromatin subfamily A member 2, sequence (P51531 whole entry): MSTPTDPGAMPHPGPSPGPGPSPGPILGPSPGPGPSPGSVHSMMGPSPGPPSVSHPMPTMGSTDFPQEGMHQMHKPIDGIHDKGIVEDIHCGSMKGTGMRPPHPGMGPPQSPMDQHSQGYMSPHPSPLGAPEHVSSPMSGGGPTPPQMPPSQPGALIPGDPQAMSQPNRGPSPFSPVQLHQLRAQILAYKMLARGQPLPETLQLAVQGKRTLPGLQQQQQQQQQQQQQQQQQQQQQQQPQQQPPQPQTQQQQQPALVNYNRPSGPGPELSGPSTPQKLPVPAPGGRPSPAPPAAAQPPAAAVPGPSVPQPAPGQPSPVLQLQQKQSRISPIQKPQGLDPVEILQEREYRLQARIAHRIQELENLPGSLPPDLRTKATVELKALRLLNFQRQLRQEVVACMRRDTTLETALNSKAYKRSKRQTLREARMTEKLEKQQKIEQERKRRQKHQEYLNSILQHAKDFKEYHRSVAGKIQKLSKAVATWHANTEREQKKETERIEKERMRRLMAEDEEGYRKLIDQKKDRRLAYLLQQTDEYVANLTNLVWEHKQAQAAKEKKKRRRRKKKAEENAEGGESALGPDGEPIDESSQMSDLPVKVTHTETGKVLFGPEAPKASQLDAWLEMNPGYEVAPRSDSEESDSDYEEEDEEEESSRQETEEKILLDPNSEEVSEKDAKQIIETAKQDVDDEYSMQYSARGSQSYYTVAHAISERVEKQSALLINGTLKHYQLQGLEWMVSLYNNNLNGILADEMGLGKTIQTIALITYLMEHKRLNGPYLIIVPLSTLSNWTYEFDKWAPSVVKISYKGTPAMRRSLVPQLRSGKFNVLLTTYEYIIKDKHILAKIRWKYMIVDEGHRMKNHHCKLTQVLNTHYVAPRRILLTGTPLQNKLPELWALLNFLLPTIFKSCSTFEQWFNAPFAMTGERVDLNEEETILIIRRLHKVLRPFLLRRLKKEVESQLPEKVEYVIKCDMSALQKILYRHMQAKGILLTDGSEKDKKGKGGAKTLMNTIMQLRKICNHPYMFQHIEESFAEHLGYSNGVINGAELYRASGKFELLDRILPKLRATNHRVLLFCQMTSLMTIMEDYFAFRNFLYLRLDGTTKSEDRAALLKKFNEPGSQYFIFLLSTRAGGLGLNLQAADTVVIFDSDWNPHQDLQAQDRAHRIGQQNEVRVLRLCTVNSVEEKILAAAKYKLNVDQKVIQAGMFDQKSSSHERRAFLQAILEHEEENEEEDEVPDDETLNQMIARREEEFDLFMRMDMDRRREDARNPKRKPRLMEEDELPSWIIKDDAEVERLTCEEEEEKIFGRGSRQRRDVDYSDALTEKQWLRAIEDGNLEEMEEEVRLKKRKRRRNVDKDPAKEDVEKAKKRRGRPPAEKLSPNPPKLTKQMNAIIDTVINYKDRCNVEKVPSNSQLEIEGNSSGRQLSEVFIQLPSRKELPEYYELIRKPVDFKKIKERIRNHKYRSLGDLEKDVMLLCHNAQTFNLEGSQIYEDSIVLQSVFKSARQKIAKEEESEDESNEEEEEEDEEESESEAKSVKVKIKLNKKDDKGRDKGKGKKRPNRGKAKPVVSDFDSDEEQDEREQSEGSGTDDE

Cn1cnnc1SCC(=O)Nc1ccc(OCc2ccccc2)cc1
IC50 [1]: > 66.6 µM (inactive) | IC50 [2]: 32 µM (inactive)

COc1ccc(Cn2nnnc2C(c2cc3cccc(C)c3nc2O)N2CCOCC2)cc1 (stereo not drawn)
AC50 [3]: 6.52 µM (active) | AC50 [4]: 5.44 µM (active) | AC50 [5]: 7.1 µM (active) | AC50 [6]: 6.17 µM (active)

CCC(C(=O)NCCC(C)C)n1ccc2cc(S(=O)(=O)N3CCCCC3)ccc21 (stereo not drawn)
IC50 [7]: 5.14 µM (active)

Cc1ccnc(Nc2nc3ccccc3s2)n1
EC50 [8]: > 91.2 µM (inactive) | EC50 [9]: > 91.2 µM (inactive)

CCc1cccc2c(C(=O)COC(=O)c3cccc(S(=O)(=O)N(C)C4CCCCC4)c3)c[nH]c12
AC50 [10]: 30.6 µM (active)

CC(=O)c1cn(CCOc2ccccc2C)c2ccccc12
IC50 [7]: 3.66 µM (active) | IC50 [11]: 8.92 µM (active)

Cc1cc(C)nc(NS(=O)(=O)c2ccc(NC(=S)NC(=O)C3CCCC3)cc2)n1
AC50 [12]: 11.1 µM (active)
